Source: patent US12458650B2, “Urination disorder-improving agent” (ASKA Pharmaceutical Co., Ltd., priority 2019, dated 2025)

Experiments:
[1] = system: bladder specimen; experiment: Test Example 3: isometric contraction test of bladder specimen from high-week-old male rats after repeated oral dosing; type: in vivo, rat; conditions: Group A: 10 mg/kg oral once a day, 2 weeks; compared with Group C (dutasteride 0.3 mg/kg); FIG. 9, 10
Text: High-week-old male rats (22-week-old; Charles River Laboratories Japan, Inc.) were examined and evaluated for the relationship between the test substances and the bladder and urethra contraction reaction. Since the rats are high-week-old, the rats are a model in which the prostate is predicted to be enlarged.
A test substance was orally administered to the high-week-old male rats repeatedly at a frequency of once a day over two (2) weeks, and then, from each rat, a bladder specimen was extracted. The bladder specimen was suspended at a resting tension of about 9.8 mN in a constant-temperature Magnus tube (37° C.) filled with a physiological salt solution aerated with 95% O2-5% CO2 gas and was subjected to an isometric contraction test by applying a square-wave electrical field stimulation (EFS, Amplitude; 0.3 ms, Frequency; 1, 2, 5, 10, 20 Hz, Duration; 5 s); or Carbachol (CCH, 100 nmol/L to 100 μmol/L) and KCl (40, 80 mmol/L).
Solvent group (control group): 0.5 v/v % Polysorbate 80 solution, 10 mL/kg (n=6) • Group A: Compound A, 10 mg/kg (n=6) • Group C: Compound C (dutasteride), 0.3 mg/kg (n=6)

[2] = system: uterine weight associated with rat deciduoma formation; experiment: Test Example 5: antiprogesterone activity, uterine weight associated with rat deciduoma formation in ovariectomized rats; type: in vivo; conditions: 192 h, 8 days, read-out: inhibition rate of uterine weight increase (antiprogesterone action)
Method: For the compound A and the compound D (mifepristone), the antiprogesterone activity was measured. Specifically, a sex hormone and a test substance were repeatedly administered to ovariectomized rats as a test system to examine the antiprogesterone action (antiprogesterone activity) based on, as an index, the fluctuation of the uterine weight (the inhibitory action relative to the increase of the weight) associated with rat deciduoma formation.
More specifically, rats (female, Crl:CD(SD), 5-week-old: Charles River Laboratories Japan, Inc.) were subjected to ovariectomy, and from one (1) week after the ovariectomy, a high dose estrone or 5 μg/one animal was hypodermically administered to the rats once a day for three (3) days. From the day after one day rest period, the rats received, once a day over eight (8) days, hypodermic administration of a low dose estrone (1 μg/one animal), intramuscular administration of progesterone (6 mg/kg), and oral administration of a test substance. In the middle of the administration, on Day 4 of the start of administration, the rats were subjected to a stimulation treatment of decidualization reaction to the right uterus. The day after the final administration, the uterine weight (right uterine body) was measured (n=6). Group E was subjected to ovariectomy and a stimulation treatment of decidualization reaction but was not subjected to a hormone treatment.
The test substances and the dosage in the test system (ovariectomized rats) are as follows. • Group E: rats with ovariectomy without hormone treatment • 0.5 v/v % Polysorbate 80 solution, 10 mL/kg (n=6) • Solvent group (control group): 0.5 v/v % Polysorbate 80 solution, 10 mL/kg (n=6) • Group A3: Compound A, 3 mg/kg (n=6) • Group A10: Compound A, 10 mg/kg (n=6) • Group A30: Compound A, 30 mg/kg (n=6) • Group D: Compound D (mifepristone), 3 mg/kg (n=6)

Question: What does the source list for `CC(=O)O[C@]1(C(C)=O)C[C@@H](O)[C@H]2[C@@H]3C=C(Cl)C4=CC(=O)OC[C@]4(C)[C@H]3CC[C@@]21C` [Compound A, 17α-acetoxy-6-chloro-15β-hydroxy-2-oxa-4,6-pregnadiene-3,20-dione]?
Answer: bladder contraction tension caused by square-wave electrical field stimulation or Carbachol and KCl [1]: significantly strong or has a strong directionality; inhibition at 3 mg/kg ([2]; Group A3: 3 mg/kg oral once a day, not significant): 15%; inhibition at 10 mg/kg ([2]; Group A10: 10 mg/kg oral once a day, significant): 63%; inhibition at 30 mg/kg ([2]; Group A30: 30 mg/kg oral once a day, significant): 83.3%
